Tested on: 6-hydroxydopamine (6-OHDA) injury Parkinson's Disease mouse model
Experiment: Apomorphine-induced rotational behavior in unilateral striatal 6-OHDA injury mice
Format: in vivo
Details: intraperitoneal injection, 300 μL, 0.065 mg/mL, two weeks post-injury
Protocol: The details of these experiments are described below.
The mice underwent unilateral striatal 6-hydroxydopamine (6-OHDA) injection (3.2 μg/μL, 0.5 μL/min) according to Francardo et al. (Neurobiol. Dis. 42:327-340, 2011). […] The placement of a SEM graft over the skull of the mice was performed as described above. The duration of rotational behavior was determined in the treated mice.
The position of the mice was recorded by a camera (while they move freely in an arena). The number of contralateral rotations per minute was quantified using a custom analysis program written in Matlab and C++. Statistical analyses were performed using a Student's t-test to compare results between treatment groups (Stata v6.0).

CN1CCc2cccc3c2[C@H]1Cc1ccc(O)c(O)c1-3 [apomorphine]
rotational behavior (contralateral turns per minute): increased

Reference: patent US9517200B2, “Methods of delivering pharmaceutical agents” (Massachusetts Eye and Ear Infirmary, priority 2011, dated 2016)
